Measured values from PubChem BioAssay AID1963446 (Molecular Pharmacology Branch, DTP, NCI, 2024).
Where “and” joins values, the source holds several entries; their conditions need not be identical. Identical values can stand only once.

Tested on: 993429-296-R-J1-PDC complex spheroid growth, percent test/control
Experiment: Anticancer human tumor 993429-296-R-J1-PDC patient-derived uterine sarcoma cell line growth inhibition [Asc]
Settings: for viability, T/C: stronger effect = lower value
Procedure, shortened: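 Stromal components (HUVEC and hMSC) are co-assembled with the cancer cells into multicellular spheroids. Drugs are then added singly or paired, at concentrations falling by half-log increments from a clinically achievable maximum, capped at 10 microM without known Cmax.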

[1] = curve of first compound, second compound 0.1 µM
[2] = curve of first compound, second compound 0.316 µM
[3] = curve of first compound, second compound 1 µM
[4] = second compound 0.1 µM, first compound 0.0316 µM
[5] = second compound 0.1 µM, first compound 0.1 µM
[6] = second compound 0.316 µM, first compound 0.0316 µM
[7] = second compound 0.316 µM, first compound 0.1 µM
[8] = second compound 1 µM, first compound 0.0316 µM
[9] = second compound 1 µM, first compound 0.1 µM
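Also: spheroids exposed to compounds for seven days.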

## Cn1ncnc1[C@H]1c2n[nH]c(=O)c3cc(F)cc(c23)N[C@@H]1c1ccc(F)cc1 + Cc1c(S(C)(=O)=O)c(-c2cc(F)cc(N3CCN(c4ccc(NS(=O)(=O)c5ccc(NC(CCN6CCC(C(=O)OCCCP(=O)(O)O)CC6)CSc6ccccc6)c(S(=O)(=O)C(F)(F)F)c5)cc4)CC3)c2)c(-c2ccc(Cl)cc2)n1C(C)C
[1]
  IC50: 9.83 nM
[2]
  IC50: 4.71 nM
[3]
  IC50: 3.8 nM
Curve of first compound, second compound 3.16 µM
  IC50: 1.01 nM
Curve of first compound, second compound 10 µM
  IC50: 10.1 nM
Second compound 0.1 µM, first compound 0.000316 µM
  viability, T/C: 66.9%
Second compound 0.1 µM, first compound 0.001 µM
  viability, T/C: 70.1%
Second compound 0.1 µM, first compound 0.00316 µM
  viability, T/C: 64.5%
Second compound 0.1 µM, first compound 0.01 µM
  viability, T/C: 46.7%
[4]
  viability, T/C: 34.1%
[5]
  viability, T/C: 18.5%
Second compound 0.316 µM, first compound 0.000316 µM
  viability, T/C: 62.6%
Second compound 0.316 µM, first compound 0.001 µM
  viability, T/C: 73.7%
Second compound 0.316 µM, first compound 0.00316 µM
  viability, T/C: 50.3%
Second compound 0.316 µM, first compound 0.01 µM
  viability, T/C: 37.3%
[6]
  viability, T/C: 33.3%
[7]
  viability, T/C: 14.2%
Second compound 1 µM, first compound 0.000316 µM
  viability, T/C: 68.8%
Second compound 1 µM, first compound 0.001 µM
  viability, T/C: 68.5%
Second compound 1 µM, first compound 0.00316 µM
  viability, T/C: 50.1%
Second compound 1 µM, first compound 0.01 µM
  viability, T/C: 35.8%
[8]
  viability, T/C: 22.7%
[9]
  viability, T/C: 10.6%
Second compound 3.16 µM, first compound 0.000316 µM
  viability, T/C: 52.8%
Second compound 3.16 µM, first compound 0.001 µM
  viability, T/C: 48.5%
Second compound 3.16 µM, first compound 0.00316 µM
  viability, T/C: 44.3%
Second compound 3.16 µM, first compound 0.01 µM
  viability, T/C: 28.9%
Second compound 3.16 µM, first compound 0.0316 µM
  viability, T/C: 9.8%
Second compound 3.16 µM, first compound 0.1 µM
  viability, T/C: 10.8%
Second compound 10 µM, first compound 0.000316 µM
  viability, T/C: 103%
Second compound 10 µM, first compound 0.001 µM
  viability, T/C: 81%
Second compound 10 µM, first compound 0.00316 µM
  viability, T/C: 93.3%
Second compound 10 µM, first compound 0.01 µM
  viability, T/C: 50.1%
Second compound 10 µM, first compound 0.0316 µM
  viability, T/C: 12.4%
Second compound 10 µM, first compound 0.1 µM
  viability, T/C: 9.31%

## C#Cc1c(F)ccc2cc(O)cc(-c3ncc4c(N5CC6CCC(C5)N6)nc(OCC56CCCN5CC(F)C6)nc4c3F)c12 (stereo unspecified)
Compound 0.0316 µM
  viability, T/C: 102% and 88% and 97.9%
Compound 0.1 µM
  viability, T/C: 108% and 101% and 89.1%
Compound 0.316 µM
  viability, T/C: 86% and 86.7% and 88.8%
Compound 1 µM
  viability, T/C: 93.3% and 82.2% and 100%
Compound 3.16 µM
  viability, T/C: 91.9% and 81.4% and 106%
Curve of compound
  IC50: > 10000 nM and 5020 nM and 5680 nM

## O=C(c1cc(Cc2n[nH]c(=O)c3ccccc23)ccc1F)N1CCN(C(=O)C2CC2)CC1 + CNC(C)C(=O)NC1CN(S(=O)(=O)c2cccc(S(=O)(=O)N3CCC4CCC(C(=O)NC(c5ccccc5)c5ccccc5)N4C(=O)C(NC(=O)C(C)NC)C3)c2)CCC2CCC(C(=O)NC(c3ccccc3)c3ccccc3)N2C1=O
Curve of first compound, second compound 0.01 µM
  IC50: 2080 nM
Curve of first compound, second compound 0.0316 µM
  IC50: 1740 nM
[1]
  IC50: 1110 nM
[2]
  IC50: 406 nM
[3]
  IC50: 903 nM
Second compound 0.01 µM, first compound 0.0316 µM
  viability, T/C: 63.2%
Second compound 0.01 µM, first compound 0.1 µM
  viability, T/C: 73.3%
Second compound 0.01 µM, first compound 0.316 µM
  viability, T/C: 64.6%
Second compound 0.01 µM, first compound 1 µM
  viability, T/C: 64.5%
Second compound 0.01 µM, first compound 3.16 µM
  viability, T/C: 41.8%
Second compound 0.01 µM, first compound 10 µM
  viability, T/C: 17.7%
Second compound 0.0316 µM, first compound 0.0316 µM
  viability, T/C: 61.5%
Second compound 0.0316 µM, first compound 0.1 µM
  viability, T/C: 56.2%
Second compound 0.0316 µM, first compound 0.316 µM
  viability, T/C: 59.5%
Second compound 0.0316 µM, first compound 1 µM
  viability, T/C: 59.6%
Second compound 0.0316 µM, first compound 3.16 µM
  viability, T/C: 40%
Second compound 0.0316 µM, first compound 10 µM
  viability, T/C: 12.4%
[4]
  viability, T/C: 53.4%
[5]
  viability, T/C: 63.5%
Second compound 0.1 µM, first compound 0.316 µM
  viability, T/C: 54.8%
Second compound 0.1 µM, first compound 1 µM
  viability, T/C: 51.4%
Second compound 0.1 µM, first compound 3.16 µM
  viability, T/C: 36.3%
Second compound 0.1 µM, first compound 10 µM
  viability, T/C: 11.6%
[6]
  viability, T/C: 60.2%
[7]
  viability, T/C: 55.9%
Second compound 0.316 µM, first compound 0.316 µM
  viability, T/C: 43.6%
Second compound 0.316 µM, first compound 1 µM
  viability, T/C: 45.5%
Second compound 0.316 µM, first compound 3.16 µM
  viability, T/C: 39%
Second compound 0.316 µM, first compound 10 µM
  viability, T/C: 14.1%
[8]
  viability, T/C: 53.2%
[9]
  viability, T/C: 48%
Second compound 1 µM, first compound 0.316 µM
  viability, T/C: 59.5%
Second compound 1 µM, first compound 1 µM
  viability, T/C: 48.7%
Second compound 1 µM, first compound 3.16 µM
  viability, T/C: 28.1%
Second compound 1 µM, first compound 10 µM
  viability, T/C: 10.7%
